Reference: ChEMBL document CHEMBL1909546, “Antiviral activity of novel 2'-fluoro-6'-methylene-carbocyclic adenosine against wild-type and drug-resistant hepatitis B virus mutants” (Bioorg Med Chem Lett, 2011)

Columns and labels:
[1] = test system: Hepatitis B virus; test: Antiviral activity against lamivudine-resistant Hepatitis B virus harboring reverse transcriptase M204V mutant infected in human HepG2(2.2.15) cells assessed as inhibition of virus replication treated daily for 9 days by quantitative blot hybridization method; assay type: functional, organism-based; conditions: HepG2 2.2.15, 216 h
[2] = test system: Hepatitis B virus; test: Fold resistance, ratio of EC90 for lamivudine-resistant Hepatitis B virus harboring reverse transcriptase M204V mutant to EC90 for wild type Hepatitis B virus; assay type: functional
[3] = test system: Hepatitis B virus; test: Fold resistance, ratio of EC90 for lamivudine-resistant Hepatitis B virus harboring reverse transcriptase M204I mutant to EC90 for wild type Hepatitis B virus; assay type: functional
[4] = test system: Hepatitis B virus; test: Ratio of adefovir EC90 to compound EC90 for adefovir-resistant Hepatitis B virus harboring reverse transcriptase N236T mutant; assay type: functional
[5] = test system: Hepatitis B virus; test: Ratio of adefovir EC50 to compound EC50 for adefovir-resistant Hepatitis B virus harboring reverse transcriptase N236T mutant; assay type: functional
[6] = test system: Hepatitis B virus; test: Antiviral activity against lamivudine-resistant Hepatitis B virus harboring reverse transcriptase L180M mutant infected in human HepG2(2.2.15) cells assessed as inhibition of virus replication treated daily for 9 days by quantitative blot hybridization method; assay type: functional, organism-based; conditions: HepG2 2.2.15, 216 h
[7] = test system: Hepatitis B virus; test: Antiviral activity against lamivudine-resistant Hepatitis B virus harboring reverse transcriptase L180M/M204V double mutant infected in human HepG2(2.2.15) cells assessed as inhibition of virus replication treated daily for 9 days by quantitative blot hybridization method; assay type: functional, organism-based; conditions: HepG2 2.2.15, 216 h
[8] = test system: Hepatitis B virus; test: Ratio of adefovir EC90 to compound EC90 for wild type Hepatitis B virus; assay type: functional
[9] = test system: Hepatitis B virus; test: Fold resistance, ratio of EC90 for adefovir-resistant Hepatitis B virus harboring reverse transcriptase N236T mutant to EC90 for wild type Hepatitis B virus; assay type: functional
[10] = test system: Hepatitis B virus; test: Antiviral activity against lamivudine-resistant Hepatitis B virus harboring reverse transcriptase M204I mutant infected in human HepG2(2.2.15) cells assessed as reduction of infectious virus titer treated daily for 9 days by quantitative Southern blot hybridization assay; assay type: functional; conditions: HepG2 2.2.15, 216 h
[11] = test system: Hepatitis B virus; test: Antiviral activity against adefovir-resistant Hepatitis B virus harboring reverse transcriptase N236T mutant infected in human HepG2(2.2.15) cells assessed as reduction of infectious virus titer treated daily for 9 days by quantitative Southern blot hybridization assay; assay type: functional; conditions: HepG2 2.2.15, 216 h
[12] = test system: Hepatitis B virus; test: Antiviral activity against wild type Hepatitis B virus infected in human HepG2(2.2.15) cells assessed as reduction of infectious virus titer treated daily for 9 days by quantitative Southern blot hybridization assay; assay type: functional; conditions: HepG2 2.2.15, 216 h
[13] = test system: Hepatitis B virus; test: Antiviral activity against wild type Hepatitis B virus infected in human HepG2(2.2.15) cells assessed as inhibition of virus replication treated daily for 9 days by quantitative blot hybridization method; assay type: functional, organism-based; conditions: HepG2 2.2.15, 216 h
[14] = test system: Hepatitis B virus; test: Antiviral activity against lamivudine-resistant Hepatitis B virus harboring reverse transcriptase M204V mutant infected in human HepG2(2.2.15) cells assessed as reduction of infectious virus titer treated daily for 9 days by quantitative Southern blot hybridization assay; assay type: functional; conditions: HepG2 2.2.15, 216 h
[15] = test system: Hepatitis B virus; test: Antiviral activity against lamivudine/entecavir-resistant Hepatitis B virus harboring reverse transcriptase L180M/M204V/S202G infected in human HepG2(2.2.15) cells assessed as inhibition of virus replication treated daily for 9 days by quantitative blot hybridization method; assay type: functional, organism-based; conditions: HepG2 2.2.15, 216 h
[16] = test system: Hepatitis B virus; test: Fold resistance, ratio of EC90 for lamivudine-resistant Hepatitis B virus harboring reverse transcriptase L180M mutant to EC90 for wild type Hepatitis B virus; assay type: functional
[17] = test system: Hepatitis B virus; test: Fold resistance, ratio of EC90 for lamivudine-resistant Hepatitis B virus harboring reverse transcriptase L180M/M204V double mutant to EC90 for wild type Hepatitis B virus; assay type: functional
[18] = test system: Hepatitis B virus; test: Ratio of Lamivudine EC90 to compound EC90 for Lamivudine-resistant Hepatitis B virus harboring reverse transcriptase L180M mutant; assay type: functional
[19] = Stability of the compound assessed as resistance to calf thymus adenosine deaminase; assay type: ADME; conditions: cattle
[20] = test system: Hepatitis B virus; test: Antiviral activity against lamivudine-resistant Hepatitis B virus harboring reverse transcriptase L180M/M204V double mutant infected in human HepG2(2.2.15) cells assessed as reduction of infectious virus titer treated daily for 9 days by quantitative Southern blot hybridization assay; assay type: functional; conditions: HepG2 2.2.15, 216 h
[21] = test system: Hepatitis B virus; test: Antiviral activity against adefovir-resistant Hepatitis B virus harboring reverse transcriptase N236T mutant infected in human HepG2(2.2.15) cells assessed as inhibition of virus replication treated daily for 9 days by quantitative blot hybridization method; assay type: functional, organism-based; conditions: HepG2 2.2.15, 216 h
[22] = test system: Hepatitis B virus; test: Antiviral activity against lamivudine-resistant Hepatitis B virus harboring reverse transcriptase M204I mutant infected in human HepG2(2.2.15) cells assessed as inhibition of virus replication treated daily for 9 days by quantitative blot hybridization method; assay type: functional, organism-based; conditions: HepG2 2.2.15, 216 h
[23] = test system: Hepatitis B virus; test: Antiviral activity against lamivudine-resistant Hepatitis B virus harboring reverse transcriptase L180M mutant infected in human HepG2(2.2.15) cells assessed as reduction of infectious virus titer treated daily for 9 days by quantitative Southern blot hybridization assay; assay type: functional; conditions: HepG2 2.2.15, 216 h
[24] = Cytotoxicity against human HepG2(2.2.15) cells after 24 hrs by neutral red dye uptake assay; assay type: cell-based

SMILES	EC50 [1] [µM]	Ratio [2]	Ratio [3]	EC50 [6] [µM]	EC50 [7] [µM]	Ratio [9]	EC90 [10] [µM]	EC90 [11] [µM]	EC90 [12] [µM]	EC50 [13] [µM]	EC90 [14] [µM]	EC50 [15] [µM]	Ratio [16]	Ratio [17]	EC90 [20] [µM]	EC50 [21] [µM]	EC50 [22] [µM]	EC90 [23] [µM]	CC50 at 24 h [24] [µM]	further results
C=C1[C@@H](n2cnc3c(N)ncnc32)[C@@H](F)[C@H](O)[C@H]1CO	1.8	1	1.1	2.1	2.2	1	5	4.6	4.5	1.5	4.7	0.67	1.1	1.2	5.5	1.7	1	5.1	> 100	Ratio [4]: 7.8; Ratio EC50 [5]: 4.5; Ratio [8]: 1.5; Ratio [18]: 4.3; Stability [19]: Stable
C=C1[C@H](CO)[C@@H](O)C[C@@H]1n1cnc2c(=O)[nH]c(N)nc21 [ENTECAVIR]	–	–	–	–	–	–	–	–	0.033	0.008	–	1.2	–	–	–	–	–	–	28	–
Nc1ncnc2c1ncn2CCOCP(=O)(O)O [ADEFOVIR]	1.6	1	1.1	5.5	2.1	5.1	8	36	7.1	1.3	7	–	1.1	1.2	8.5	7.8	1.9	7.7	–	–
Nc1ccn([C@@H]2CS[C@H](CO)O2)c(=O)n1 [LAMIVUDINE]	> 100	>166	>166	1.5	> 100	1.5	> 100	0.9	0.6	–	> 100	> 500	36.7	>166	> 100	–	> 100	22	–	–
